Data reported in the kinase profiling compilation of Christmann-Franck et al. (2016).
One block for each compound: values may come before it.

What was measured:
Experiment in all cases: radiometric filter-binding kinase assay
[1] = tested on: AKT1 (human), P31749 [S473D]; conditions: compound 10.0 µM; ATP 5 µM
PKN2 (human) = PKN2 (human) (UniProt Q16513); conditions: compound 10.0 µM; ATP 5 µM
SRC (chicken) = conditions: ATP 50 µM, accession and sequence are those of the human protein
[2] = biological target: CSNK2A1 or CSNK2A2 (human) (UniProt P19784+P68400); conditions: compound 1.0 µM; ATP 5 µM
MAPK11 (human) = MAPK11 (human) (UniProt Q15759); conditions: compound 1.0 µM; ATP 20 µM
Sequence of MAPK11 (human) (Q15759 whole entry, looked up): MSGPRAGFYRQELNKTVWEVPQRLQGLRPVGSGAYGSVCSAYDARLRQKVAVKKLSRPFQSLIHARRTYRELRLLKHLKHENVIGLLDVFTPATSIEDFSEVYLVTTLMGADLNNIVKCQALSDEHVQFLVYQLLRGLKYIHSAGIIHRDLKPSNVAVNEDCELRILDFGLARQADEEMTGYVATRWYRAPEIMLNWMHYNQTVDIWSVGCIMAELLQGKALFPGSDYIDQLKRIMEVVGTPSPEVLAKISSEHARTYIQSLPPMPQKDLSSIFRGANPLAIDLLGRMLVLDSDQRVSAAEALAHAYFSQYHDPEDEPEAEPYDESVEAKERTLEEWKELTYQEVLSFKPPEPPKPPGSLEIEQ

PAK7 (human) = PAK7 (human) (UniProt Q9P286); conditions: compound 1.0 µM; ATP 20 µM
Sequence of PAK7 (human) (Q9P286 whole entry, looked up): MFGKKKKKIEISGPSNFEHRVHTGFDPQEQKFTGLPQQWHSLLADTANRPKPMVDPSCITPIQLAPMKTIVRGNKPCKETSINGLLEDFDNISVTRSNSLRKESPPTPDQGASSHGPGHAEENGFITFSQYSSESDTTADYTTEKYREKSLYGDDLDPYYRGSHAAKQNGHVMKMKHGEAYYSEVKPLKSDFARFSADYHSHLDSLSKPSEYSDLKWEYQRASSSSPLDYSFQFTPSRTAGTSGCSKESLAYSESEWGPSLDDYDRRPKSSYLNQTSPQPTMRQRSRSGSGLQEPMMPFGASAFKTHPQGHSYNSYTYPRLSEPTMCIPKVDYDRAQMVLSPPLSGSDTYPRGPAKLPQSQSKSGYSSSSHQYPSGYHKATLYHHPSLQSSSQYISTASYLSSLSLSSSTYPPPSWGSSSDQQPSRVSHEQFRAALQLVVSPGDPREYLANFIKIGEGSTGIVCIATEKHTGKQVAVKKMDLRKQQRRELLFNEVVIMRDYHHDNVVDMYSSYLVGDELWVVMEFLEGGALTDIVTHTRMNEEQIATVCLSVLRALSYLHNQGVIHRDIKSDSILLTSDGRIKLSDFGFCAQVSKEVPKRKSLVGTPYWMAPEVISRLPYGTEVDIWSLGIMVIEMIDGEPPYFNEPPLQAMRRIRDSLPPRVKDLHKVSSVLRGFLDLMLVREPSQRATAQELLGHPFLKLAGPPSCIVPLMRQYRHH

PDPK1 (human) = PDPK1 (human) (UniProt O15530); conditions: compound 1.0 µM
Sequence of PDPK1 (human) (O15530 whole entry, looked up): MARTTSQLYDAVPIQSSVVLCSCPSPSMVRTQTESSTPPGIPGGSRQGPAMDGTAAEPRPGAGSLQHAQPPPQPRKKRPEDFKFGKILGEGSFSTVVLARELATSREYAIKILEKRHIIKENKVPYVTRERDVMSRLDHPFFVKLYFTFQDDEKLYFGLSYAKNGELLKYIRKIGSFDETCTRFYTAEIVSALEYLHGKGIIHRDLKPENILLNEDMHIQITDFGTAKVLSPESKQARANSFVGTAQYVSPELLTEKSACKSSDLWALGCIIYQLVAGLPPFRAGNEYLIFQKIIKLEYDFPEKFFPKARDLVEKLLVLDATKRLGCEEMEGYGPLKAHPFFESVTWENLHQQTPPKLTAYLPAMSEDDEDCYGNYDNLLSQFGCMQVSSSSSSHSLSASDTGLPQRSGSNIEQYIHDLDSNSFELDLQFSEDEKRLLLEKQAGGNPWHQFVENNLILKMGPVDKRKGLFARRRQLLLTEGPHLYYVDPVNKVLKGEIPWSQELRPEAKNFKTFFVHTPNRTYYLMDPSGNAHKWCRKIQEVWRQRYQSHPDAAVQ

PHKG1 or PHKG2 (human) = PHKG1 or PHKG2 (human) (UniProt P15735+Q16816); conditions: compound 1.0 µM; ATP 50 µM
PRKCG (human) = PRKCG (human) (UniProt P05129); conditions: compound 1.0 µM; ATP 5 µM
CSNK1D (human) = CSNK1D (human) (UniProt P48730); conditions: compound 1.0 µM; ATP 20 µM
Sequence of CSNK1D (human) (P48730 whole entry, looked up): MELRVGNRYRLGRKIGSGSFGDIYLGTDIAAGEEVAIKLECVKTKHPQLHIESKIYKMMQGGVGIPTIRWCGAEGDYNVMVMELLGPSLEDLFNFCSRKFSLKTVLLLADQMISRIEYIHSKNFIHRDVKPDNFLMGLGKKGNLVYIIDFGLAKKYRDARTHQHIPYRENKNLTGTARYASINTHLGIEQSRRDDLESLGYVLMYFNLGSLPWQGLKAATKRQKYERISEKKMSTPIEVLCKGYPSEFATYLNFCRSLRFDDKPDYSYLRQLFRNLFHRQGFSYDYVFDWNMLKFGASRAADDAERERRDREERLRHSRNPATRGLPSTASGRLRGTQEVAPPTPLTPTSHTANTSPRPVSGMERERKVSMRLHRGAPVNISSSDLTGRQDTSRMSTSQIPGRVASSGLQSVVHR

MAPK9 (human) = MAPK9 (human) (UniProt P45984); conditions: compound 25.0 µM; ATP 20 µM
Sequence of MAPK9 (human) (P45984 whole entry, looked up): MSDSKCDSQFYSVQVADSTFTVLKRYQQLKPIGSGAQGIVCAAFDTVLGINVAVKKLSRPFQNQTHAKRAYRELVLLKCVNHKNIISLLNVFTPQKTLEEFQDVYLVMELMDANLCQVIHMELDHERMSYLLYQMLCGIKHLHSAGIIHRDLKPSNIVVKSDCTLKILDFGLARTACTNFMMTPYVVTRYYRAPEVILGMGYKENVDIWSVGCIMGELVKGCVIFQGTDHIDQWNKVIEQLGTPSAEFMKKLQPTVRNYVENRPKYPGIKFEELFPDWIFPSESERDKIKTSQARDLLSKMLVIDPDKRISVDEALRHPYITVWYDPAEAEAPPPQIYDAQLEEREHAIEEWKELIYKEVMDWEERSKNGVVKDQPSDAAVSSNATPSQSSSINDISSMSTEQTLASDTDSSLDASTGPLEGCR

MAPK14 (human) = MAPK14 (human) (UniProt Q16539); conditions: compound 10.0 µM; ATP 50 µM
Sequence of MAPK14 (human) (Q16539 whole entry, looked up): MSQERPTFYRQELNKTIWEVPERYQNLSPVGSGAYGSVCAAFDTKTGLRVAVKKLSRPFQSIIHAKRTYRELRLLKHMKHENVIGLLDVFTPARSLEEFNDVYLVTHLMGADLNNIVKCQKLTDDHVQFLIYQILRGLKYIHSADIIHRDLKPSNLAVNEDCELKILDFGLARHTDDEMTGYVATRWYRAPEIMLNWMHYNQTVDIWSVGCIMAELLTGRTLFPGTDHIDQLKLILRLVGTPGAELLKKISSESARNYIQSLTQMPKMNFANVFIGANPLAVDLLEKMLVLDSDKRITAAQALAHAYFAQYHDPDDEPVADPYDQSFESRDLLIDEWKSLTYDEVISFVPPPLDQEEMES

Sequence of AKT1 (human), P31749 [S473D] (P31749 whole entry S473D, looked up): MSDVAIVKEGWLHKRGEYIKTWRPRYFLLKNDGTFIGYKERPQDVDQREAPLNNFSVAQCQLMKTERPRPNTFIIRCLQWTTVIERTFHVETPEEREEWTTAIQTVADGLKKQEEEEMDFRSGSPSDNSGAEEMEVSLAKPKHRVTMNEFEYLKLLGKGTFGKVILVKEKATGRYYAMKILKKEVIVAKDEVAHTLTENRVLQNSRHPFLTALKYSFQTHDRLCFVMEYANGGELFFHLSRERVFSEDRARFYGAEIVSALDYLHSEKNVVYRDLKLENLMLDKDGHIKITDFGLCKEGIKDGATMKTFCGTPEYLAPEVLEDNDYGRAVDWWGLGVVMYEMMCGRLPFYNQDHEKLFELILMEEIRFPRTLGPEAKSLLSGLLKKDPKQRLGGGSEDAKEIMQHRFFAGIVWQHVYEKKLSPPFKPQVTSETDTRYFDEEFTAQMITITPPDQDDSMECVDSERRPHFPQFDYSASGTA
Sequence of PKN2 (human) (Q16513 whole entry, looked up): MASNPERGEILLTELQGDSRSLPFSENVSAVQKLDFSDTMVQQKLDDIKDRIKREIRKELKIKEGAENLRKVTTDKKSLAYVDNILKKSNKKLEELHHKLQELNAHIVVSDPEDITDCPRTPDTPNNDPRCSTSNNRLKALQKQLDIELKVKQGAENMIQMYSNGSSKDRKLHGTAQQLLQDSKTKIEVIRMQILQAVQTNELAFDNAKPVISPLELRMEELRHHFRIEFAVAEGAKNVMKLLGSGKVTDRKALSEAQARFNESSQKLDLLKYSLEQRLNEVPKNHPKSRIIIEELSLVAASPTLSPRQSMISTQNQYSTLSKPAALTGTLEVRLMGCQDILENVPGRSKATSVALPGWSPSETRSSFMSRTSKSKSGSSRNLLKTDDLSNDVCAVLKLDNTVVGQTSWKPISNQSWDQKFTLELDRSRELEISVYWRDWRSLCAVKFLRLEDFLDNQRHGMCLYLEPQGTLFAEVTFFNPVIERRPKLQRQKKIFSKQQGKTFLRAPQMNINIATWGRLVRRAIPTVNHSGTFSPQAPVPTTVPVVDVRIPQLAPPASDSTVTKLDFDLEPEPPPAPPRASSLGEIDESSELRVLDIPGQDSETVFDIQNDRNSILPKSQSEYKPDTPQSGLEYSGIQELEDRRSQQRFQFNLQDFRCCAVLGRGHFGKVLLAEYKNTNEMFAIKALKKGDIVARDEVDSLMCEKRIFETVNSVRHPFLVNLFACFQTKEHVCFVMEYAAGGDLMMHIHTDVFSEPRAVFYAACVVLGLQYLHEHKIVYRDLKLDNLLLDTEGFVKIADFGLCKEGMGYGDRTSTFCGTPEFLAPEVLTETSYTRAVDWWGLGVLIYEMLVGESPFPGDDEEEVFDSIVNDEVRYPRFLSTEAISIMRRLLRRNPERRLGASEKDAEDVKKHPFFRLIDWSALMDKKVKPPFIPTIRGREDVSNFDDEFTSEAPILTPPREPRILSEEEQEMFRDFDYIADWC

- residual activity [1]: 107%
- residual activity (PKN2 (human)): 107%
Structure (SMILES): NC(=O)c1ccc(-c2nc(-c3ccccn3)c(-c3ccc4c(c3)OCCO4)[nH]2)cc1

- residual activity (SRC (chicken); compound 1.0 µM): 20%
Structure (SMILES): CC(C)(C)n1nc(-c2cccc3ccccc23)c2c(N)ncnc21

- residual activity [2]: 92%
- residual activity (MAPK11 (human)): 94%
- residual activity (PAK7 (human)): 74%
- residual activity (PDPK1 (human); ATP 20 µM): 80%
- residual activity (PDPK1 (human); ATP 50 µM): 90%
- residual activity (PHKG1 or PHKG2 (human)): 93%
- residual activity (PRKCG (human)): 82%
Structure (SMILES): CC[C@@H](CO)Nc1nc(NCc2ccccc2)c2ncn(C(C)C)c2n1

- IC50 (SRC (chicken)): 100 nM
Structure (SMILES): CN(C)S(=O)(=O)c1ccc2c(c1)/C(=C/c1cc3c([nH]1)CCCC3)C(=O)N2

Structure (SMILES): COc1ccc2c(c1)[nH]c1c(C)nccc12
- residual activity (CSNK1D (human)): 60%

- residual activity (MAPK9 (human)): 101%
Structure (SMILES): COc1cc(OC)c(/C=C2\C(=O)Nc3ccccc32)c(OC)c1

- residual activity (MAPK14 (human)): 8%
Structure (SMILES): Cc1ccc(NC(=O)c2cccc(N(C)C)c2)cc1NC(=O)c1ccc(O)cc1
